Laboratory results: US20210315837A1, “CANNABINOIDS FOR THE TREATMENT OF GRAM-POSITIVE INFECTIONS INCLUDING ANTIBIOTIC-RESISTANT BACTERIAL STRAINS” (priority 2018, published 2021)
Values after ≈ are worked out from the molar mass of the structure shown. Values joined by “and” are separate entries in the source; they are usually repeats but may differ in a detail not shown here. Equal values may be shown once. Read-outs that look alike come from different tables or passages of the source.

Columns and labels:
[1] = test system: MRS 1708 (Mupirocin-resistant); test: IC50, MIC and MBC against MRS 1708 (Mupirocin-resistant); assay type: cell-based, Staphylococcus aureus; parameters: AMC: unit not given here
Method: (§1) As used herein, the term “minimum inhibitory concentration (MIC)” refers to the lowest concentration of an antimicrobial agent that will inhibit the visible growth of a microorganism after overnight incubation. MIC values against bacteria may be determined by standard methods. See also P. A. Wayne, Methods for Dilution Antimicrobial Tests for Bacteria that Grow Aerobically; Approved Standard, Ninth Edition, 2012, CLSI Document M07-A9, Vol. 32 No. 2, which is incorporated by reference herein in its entirety.

MRS 33591 = test: IC50, MIC and MBC against MRS 33591; assay type: cell-based, Staphylococcus aureus
Method: as §1

MRS USA 400 = test: IC50, MIC and MBC against MRS USA 400; assay type: cell-based, Staphylococcus aureus
Method: as §1

MRS USA 300 = test: IC50, MIC and MBC against MRS USA 300; assay type: cell-based, Staphylococcus aureus
Method: as §1

S. aureus 29213 = test: IC50, MIC and MBC against S. aureus 29213; assay type: cell-based
Method: As used herein, the term “minimum inhibitory concentration (MIC)” refers to the lowest concentration of an antimicrobial agent that will inhibit the visible growth of a microorganism after overnight incubation. MIC values against bacteria may be determined by standard methods.

[2] = Mupirocin-resistant MRS (Table 11)
[3] = Mupirocin-resistant MRS (Table 11), in µg/mL
[4] = MRS 33591, tested Conc. in μg/mL
[5] = MRS USA 400, tested Conc. in μg/mL
[6] = MRS USA 300, tested Conc. in μg/mL
[7] = S. aureus 29213, tested Conc. in μg/mL
[8] = S. aureus 29213, tested Conc. in μg/mL, NA given without definition
[9] = Staphylococcus aureus, S. aureus 29213, tested Conc. in μg/mL, read-out: MIC

Molecule	AMC [1, 2]	IC50 [1, 3]	IC50 (MRS 33591; [4])	MIC (MRS 33591; [4])	IC50 (MRS USA 400; [5])	MIC (MRS USA 400; [5])	IC50 (MRS USA 300; [6])	MIC (MRS USA 300; [6])	MIC (S. aureus 29213; [7])	IC50 (S. aureus 29213; [8])	IC50 ([1]; Staphylococcus aureus)	IC50 (MRS 33591; Staphylococcus aureus)	MIC (MRS 33591; Staphylococcus aureus)	IC50 (MRS USA 400; Staphylococcus aureus, USA400)	IC50 (MRS USA 300; Staphylococcus aureus, USA300)	IC50 (S. aureus 29213; Staphylococcus aureus, 29213) [µg/mL]	MBC (MRS 33591; [4])	other results
CCCCCc1cc(O)c(C/C=C(\C)CCC2OC2(C)C)c(O)c1 (stereo not drawn) [6,7-Epoxycannabigerol]	20 ± 0	7.74 ± 1.17	6.73	13.33	8.67	20 ± 0	7.53	20 ± 0	16.67	5.83								
CCCCCc1cc(O)c2c(c1)OC(C)(C)c1cc(O)c(C)cc1-2 [8-Hydroxycannabinol]		2.15 ± 0.22	2.33	5 ± 0	1.82	5 ± 0	1.58	5 ± 0	5 ± 0	1.2								
CC(C)=CCC/C(C)=C\Cc1c(O)cc(C)cc1O [(Z)-Cannabigerorcin]		6.93 ± 1.54	9.48	20 ± 0	7.27	13.33	6.46	16.67	16.67	8.12								
CCCCCc1cc(O)c2c(c1)OC(C)(CCC=C(C)C)C=C2 (stereo not drawn) [Cannabichromene]											5.04 ± 0.55 µg/mL	2.58 µg/mL	5 µg/mL	7.28 µg/mL	6.44 µg/mL	6.96 (≈ 22.1 µM)		
CC(C)=CCCC1(C)C=Cc2c(O)cc(C)cc2O1 (stereo not drawn) [Cannabichromeorcin]	13.33 ± 5.77	5.57 ± 0.27	5.56	10 ± 0	5.9	10 ± 0	5.41	10 ± 0	10 ± 0	6.94							20 ± 0	MBC (MRS USA 400; [5]): 20 ± 0; MBC (MRS USA 300; [6]): 13.33
C=C(C)[C@@H]1CCC(C)=C[C@H]1c1c(O)cc(CCCCC)c(C(=O)O)c1O [Cannabidiolic acid]						13.33		20 ± 0			5.57 ± 0.68 µg/mL	7.27 µg/mL	20 µg/mL	4.99 µg/mL	6.11 µg/mL	6.83 (≈ 19.1 µM)		MIC (S. aureus 29213; [9]): 16.7 µg/mL (≈ 46.5 µM)
C=C(C)[C@@H]1CC[C@](C)(O)[C@H]2Oc3cc(CCCCC)cc(O)c3[C@@H]12 [Cannabielsoin]	20 ± 0	6.03 ± 0.49	6.26	10 ± 0	6.03	10 ± 0	5.49	10 ± 0	10 ± 0	6.15								MBC (MRS USA 300; [6]): 20 ± 0
CCCCCc1cc(O)c(C/C=C(\C)CCC=C(C)C)c(O)c1C(=O)O [Cannabigerolic acid]						5 ± 0		8.33			1.55 ± 0.27 µg/mL	2.29 µg/mL	13.3 µg/mL	1.67 µg/mL	1.52 µg/mL	2.05 (≈ 5.69 µM)		MIC (S. aureus 29213; [9]): 8.33 µg/mL (≈ 23.1 µM)
O=C(O)c1cn(C2CC2)c2cc(N3CCNCC3)c(F)cc2c1=O [Ciprofloxacin, reference compound]								0.5 ± 0				0.12 µg/mL	0.67 µg/mL		0.13 µg/mL	0.12 (≈ 0.362 µM)	0.67	MBC (MRS USA 300; [6]): 0.67; MBC (S. aureus 29213; [7]): 0.67; MIC (S. aureus 29213; Staphylococcus aureus, 29213): 0.5 µg/mL (≈ 1.51 µM)
COc1cccc(OC)c1C(=O)N[C@@H]1C(=O)N2[C@@H]1SC(C)(C)[C@@H]2C(=O)O [Methicillin, reference compound]	25 ± 0					25 ± 0					7.31 µM and 2.78 µg/mL	> 131000 nM	> 131 µM	8.78 µM and 3.34 µg/mL	70.2 µM and 26.7 µg/mL	0.65 (≈ 1.71 µM)		MBC ([1]; Staphylococcus aureus): 65.7 µM (≈ 25 µg/mL); MIC ([1]; Staphylococcus aureus): 65.7 µM (≈ 25 µg/mL); MBC (MRS 33591; Staphylococcus aureus): > 131 µM; MBC (MRS USA 400; [5]): 41.67; MBC (MRS USA 400; Staphylococcus aureus, USA400): 110 ± 37.9 µM (≈ 41.7 µg/mL); MIC (MRS USA 400; Staphylococcus aureus, USA400): 65.7 µM (≈ 25 µg/mL); MBC (MRS USA 300; Staphylococcus aureus, USA300): > 131 µM; MIC (MRS USA 300; Staphylococcus aureus, USA300): > 131 µM; MIC (S. aureus 29213; Staphylococcus aureus, 29213): 2.6 ± 0.9 µg/mL (≈ 6.83 µM)
C/C(=C\C(=O)OCCCCCCCCC(=O)O)C[C@@H]1OC[C@H](C[C@@H]2O[C@H]2[C@@H](C)[C@H](C)O)[C@@H](O)[C@H]1O [Mupirocin, reference compound]						0.16 ± 0		0.23			> 100000 nM	80 nM and 0.04 µg/mL	0.44 µM and 0.22 µg/mL	80 nM and 0.04 µg/mL	80 nM and 0.04 µg/mL	0.04 (≈ 0.0799 µM)	2.08	MBC ([1]; Staphylococcus aureus): > 100 µM; MIC ([1]; Staphylococcus aureus): > 100 µM; MBC (MRS 33591; Staphylococcus aureus): 4.15 ± 2.6 µM (≈ 2.08 µg/mL); MBC (MRS USA 400; [5]): 0.94 ± 0.44; MBC (MRS USA 400; Staphylococcus aureus, USA400): 1.88 ± 0.88 µM (≈ 0.941 µg/mL); MIC (MRS USA 400; Staphylococcus aureus, USA400): 0.32 µM (≈ 0.16 µg/mL); MBC (MRS USA 300; Staphylococcus aureus, USA300): 3.76 ± 1.76 µM (≈ 1.88 µg/mL); MIC (MRS USA 300; Staphylococcus aureus, USA300): 0.46 ± 0.22 µM (≈ 0.23 µg/mL); MBC (S. aureus 29213; [7]): 1.25 ± 0; MIC (S. aureus 29213; [9]): 0.39 µg/mL (≈ 0.779 µM)
CCCCCc1cc(O)c(CCC(C)CCCC(C)C)c(O)c1 (stereo not drawn) [Tetrahydro CBG, Tetrahydrocannabigerol]	3.33 ± 1.44	0.83 ± 0.2	0.67 ± 0	1.25 ± 0	1.12	2.5 ± 0	0.82 ± 0.1	2.08	1.25 ± 0	0.7							3.75	MBC ([1]; MRS 1708 (Mupirocin-resistant)): 10.39 ± 4.49 µM (≈ 3.33 µg/mL); MIC ([1]; MRS 1708 (Mupirocin-resistant)): 5.21 ± 2.25 µM (≈ 1.67 µg/mL); IC50 ([1]; MRS 1708 (Mupirocin-resistant), read-out: IC50): 2590 ± 620 nM; MBC (MRS 33591; MRS 33591): 11.7 ± 5.52 µM (≈ 3.75 µg/mL); MIC (MRS 33591; MRS 33591): 3.9 ± 0 µM; IC50 (MRS 33591; MRS 33591, read-out: IC50): 2090 nM; MBC (MRS USA 400; MRS USA 400): 31.2 ± 0 µM (≈ 10 µg/mL); MIC (MRS USA 400; MRS USA 400): 7.8 ± 0 µM (≈ 2.5 µg/mL); IC50 (MRS USA 400; MRS USA 400, read-out: IC50): 3490 ± 500 nM; MBC (MRS USA 400; [5]): 10 ± 0; MBC (MRS USA 300; MRS USA 300): >62 µM; MIC (MRS USA 300; MRS USA 300): 6.49 ± 2.25 µM (≈ 2.08 µg/mL); IC50 (MRS USA 300; MRS USA 300, read-out: IC50): 2560 ± 310 nM
CCCCCc1cc(O)c2c(c1)OC(C)(C)[C@@H]1CC=C(C)C[C@@H]21 [Δ8-Tetrahydrocannabinol]	10 ± 8.66	1.82 ± 0.08	1.43	2.5 ± 0	2.55	10 ± 0	1.91	5 ± 0	2.5 ± 0	1.47							10 ± 0	
Methyl tetrahydrocannabigerol	8.33 ± 2.89		1.83 and 1.39		1.91 and 1.42		1.76 and 1.26			1.8 and 1.53								MBC (S. aureus 29213; [7]): 10 ± 0
Tetrahydrocannabigerolic acid		3.24 ± 0.13	4.33	20 ± 0	2.79	13.33	2.98	20 ± 0	20 ± 0	3.67								
